Data as given in patent publication US3994890A, “1-Aminoalkyl, 3-phenyl indazoles” (Chugai Seiyaku Kabushiki Kaisha, priority 1974, dated 1976).
Structures can show the parent of a compound that is named as a salt. Where two headings read alike, the source gives them in different places.

Assays:
[1] = system: hexobarbital-treated ddY Strain male mice; test: Barbiturate potentiation (duration of loss of righting reflex due to hexobarbital); assay type: in vivo, mouse (ddY Strain); details: 0.5 h, read-out: Barbiturate potentiation (ratio with control groups)
Procedure: ddY Strain male mice (4 - 5 weeks old, body weight 23 - 28 g) in groups of 5 mice each were orally treated with 100 mg/kg of samples and 30 minutes after the oral administration the mice were intraperitoneally treated with 100 mg/kg of hexobarbital. Duration of loss of righting reflex due to hexobarbital was determined and barbiturate potentiation ratios with control groups were calculated. Imipramine, desipramine and diazepam were used as control drugs.

[2] = Acute toxicity, mouse; assay type: in vivo; details: in vivo, po
Description: (§1) ddY Strain mice and Wistar-Imamichi strain rats were used to inspect acute toxicity and subacute toxicity (30 days; oral administration) of a compound of the formula [I].

[3] = system: ddY Strain mice; test: Acute toxicity, mouse; assay type: in vivo; details: p.o.
Description: as §1

[4] = Acute toxicity, rat; details: in vivo, po
Description: as §1

[5] = system: Wistar-Imamichi strain rats; test: Subacute toxicity (30 days; oral administration), rat; assay type: in vivo, rat (Wistar-Imamichi strain)
Description: as §1

[6] = system: hexobarbital-treated ddY Strain male mice; test: Barbiturate potentiation (duration of loss of righting reflex due to hexobarbital); assay type: in vivo, mouse (ddY Strain); details: Mus musculus, po, 0.5 h, read-out: Barbiturate potentiation (ratio with control groups)
[7] = mouse, 100 mg/kg oral, 30 minutes before 100 mg/kg i.p. hexobarbital, loss of righting reflex duration
[8] = 30 days oral, at a dose of 50 mg/kg

CN(C)CCn1nc(-c2ccccc2)c2ccccc21 [Example 1, 1-dimethylaminoethyl-3-phenylindazole hydrochloride]
response vs control in vivo at 100 mg/kg [1, 7]: 300%

CN(C)CCn1nc(-c2ccccc2)c2cc(Cl)ccc21 [Example 2, 1-dimethylaminoethyl-3-phenyl-5-chloroindazole hydrochloride]
response vs control in vivo at 100 mg/kg [1, 7]: 150%

Cc1ccc2c(c1)c(-c1ccccc1)nn2CCN(C)C [Example 3, 1-dimethylaminoethyl-3-phenyl-5-methylindazole hydrochloride]
response vs control in vivo at 100 mg/kg [1, 7]: 150%

CCN(CC)CCn1nc(-c2ccccc2)c2cc(Cl)ccc21 [Example 4, 1-diethylaminoethyl-3-phenyl-5-chloroindazole hydrochloride]
response vs control in vivo at 100 mg/kg [1, 7]: 120%

CCN(CC)CCn1nc(-c2ccccc2)c2ccccc21 [Example 6, 1-diethylaminoethyl-3-phenylindazole hydrochloride]
response vs control in vivo at 100 mg/kg [1, 7]: 290%

CN(C)CCCn1nc(-c2ccccc2)c2ccccc21 [Example 7, 1-dimethylaminopropyl-3-phenylindazole hydrochloride]
response vs control in vivo at 100 mg/kg [1, 7]: 190%

CN(C)CCCn1nc(-c2ccccc2)c2cc(Cl)ccc21 [Example 8, 1-dimethylaminopropyl-3-phenyl-5-chloroindazole hydrochloride]
response vs control in vivo at 100 mg/kg [1, 7]: 130%

Cc1ccc2c(c1)c(-c1ccccc1)nn2CCCN(C)C [Example 10, 1-dimethylaminopropyl-3-phenyl-5-methylindazole]
response vs control in vivo at 100 mg/kg [1, 7]: 100%
LD50 [2]: 580 mg/kg
LD50 [3]: 660 mg/kg
LD50 [4]: 3000 to 5000 mg/kg
Subacute toxicity: fatality ([5]; 30 days oral, at a dose of 100 mg/kg): not fatal
Subacute toxicity: symptoms ([5]; in vivo, po, 100 mg/kg): no abnormal symptom

c1ccc(-c2nn(CCCN3CCCCC3)c3ccccc23)cc1 [Example 11, 1-piperidinopropyl-3-phenylindazole hydrochloride]
response vs control in vivo at 100 mg/kg [1, 7]: 130%

Cc1ccc2c(c1)c(-c1ccccc1)nn2CCCN1CCCCC1 [Example 12, 1-piperidinopropyl-3-phenyl-5-methylindazole hydrochloride]
response vs control in vivo at 100 mg/kg [1, 7]: 100%

Clc1ccc2c(c1)c(-c1ccccc1)nn2CCN1CCOCC1 [Example 14, 1-morpholinoethyl-3-phenyl-5-chloroindazole hydrochloride]
response vs control in vivo at 100 mg/kg [1, 7]: 170%

Cc1ccc2c(c1)c(-c1ccccc1)nn2CCCN1CCOCC1 [Example 15, 1-morpholinopropyl-3-phenyl-5-methylindazole hydrochloride]
response vs control in vivo at 100 mg/kg [1, 7]: 140%

Cc1ccc2c(c1)c(-c1ccccc1)nn2CCCN1CCN(C)CC1 [Example 17, 1-N-methylpiperazinopropyl-3-phenyl-5-methylindazole hydrochloride]
response vs control in vivo at 100 mg/kg [1, 7]: 100%

Clc1ccc2c(c1)c(-c1ccccc1)nn2CN1CCOCC1 [Example 19, 1-morpholinomethyl-3-phenyl-5-chloroindazole]
response vs control in vivo at 100 mg/kg [1, 7]: 120%

Cc1ccc2c(c1)c(-c1ccccc1)nn2CN1CCCC1 [Example 20, 1-pyrrolidinomethyl-3-phenyl-5-methylindazole hydrochloride]
response vs control in vivo at 100 mg/kg [1, 7]: 160%

c1ccc(-c2nn(CN3CCOCC3)c3ccccc23)cc1 [Example 23, 1-morpholinomethyl-3-phenylindazole]
response vs control in vivo at 100 mg/kg [1, 7]: 130%

O=C1c2ccccc2C(=O)N1CCCn1nc(-c2ccccc2)c2cc(Cl)ccc21 [Example 25, 1-phthalimidopropyl-3-phenyl-5-chloroindazole]
response vs control in vivo at 100 mg/kg [1, 7]: 110%

CNCCCn1nc(-c2ccccc2)c2cc(C)ccc21 [Example 29, 1-N-monomethylaminopropyl-3-phenyl-5-methylindazole hydrochloride]
response vs control in vivo at 100 mg/kg [1, 7]: 170%

Cc1ccc2c(c1)c(-c1ccccc1)nn2CCCN [Example 34, 1-aminopropyl-3-phenyl-5-methylindazole]
response vs control in vivo at 100 mg/kg [1, 7]: 250%

CNCCCN1c2ccccc2CCc2ccccc21 [desipramine, reference compound]
response vs control in vivo at 100 mg/kg ([1]; Mus musculus, po): 150%

CN1C(=O)CN=C(c2ccccc2)c2cc(Cl)ccc21 [diazepam]
response vs control in vivo at 5 mg/kg [6]: 230%

CN(C)CCCN1c2ccccc2CCc2ccccc21 [imipramine]
response vs control in vivo at 100 mg/kg ([1]; Mus musculus, po): 130%
Subacute toxicity: blood urine nitrogen [5, 8]: reduced
Subacute toxicity: fatality [5, 8]: not fatal
Subacute toxicity: hemoglobin [5, 8]: reduced
